Tests used:
[1] = system: Mouse-derived colon cancer (colon-26 adenocarcinoma) cells; assay: In vivo experiment of anticancer treatment; set-up: species or system BALB/c male mouse; conditions: cancer-bearing mice
Description: As an experimental animal, a six-week-old BALB/c male mouse (weight 25 g, Shimizu Laboratory Supplies Co., Ltd.) was selected. […] In the experiment, the same agent treatment was performed as in the toxicity experiment. Specifically, the experiment was conducted in the following methods:
Weight changes and survival rate were observed from the day of the administration.

[2] = system: mouse-derived colon cancer cells (colon-26); assay: In vitro cellular toxicity experiment (CCK-8); assay type: cell-based; conditions: colon-26, 10 μg/ml, forty eight hour treatment
Description: Using mouse-derived colon cancer cells (colon-26), a toxicity of the microparticle to cancer cells was experimented. Specifically, the experiment was conducted according to the following method:
The colon-26 cells were disseminated on a 96 well-plate at 1′104 concentration and cultured for twenty four hours. […] Cellular toxicity was examined by measuring absorbency under 450 nm with a CCK-8 kit (Dojindo, Kumamoto, Japan), the CCK-8 kit measuring formazan substitution of tetrazolium based on an intercellular enzyme.

Q: How did the “day of minimum weight after the administration” value ([1]; 20 mg/kg of CDDP intraperitoneal) turn out when `N.N.[Cl][Pt][Cl]` [free CDDP, cis-dichlorodiammineplatinum (II)] was run?
A: fifth day

Q: What about the “anticancer effect, concentration difference 5 mg/kg vs 10 mg/kg” value ([1]; intraperitoneal) of the same molecule?
A: no significant difference in the anticancer effect

Q: And the “start of death from cancer after the administration” value ([1]; intraperitoneal)?
A: started to die of cancer after a fortieth day

Q: What about the cytostatic effect [2] of the same molecule?
A: approximately 50%

From patent US20080145440A1, “Microparticle preparation and medical composition” (priority 2006, published 2008)
